# Values of other authors in US20240148693A1, “COMPOSITION, PREPARATION METHOD THEREFOR, AND USE THEREOF” (CHANGSHA JINGYI PHARMACEUTICAL TECHNOLOGY CO., LTD, priority 2021, published 2024).
# System: synaptic vesicle glycoprotein 2A (SV2A)
# Details: preclinical animal experiments
smiles,measurement,value
CCC[C@@H]1CC(=O)N([C@@H](CC)C(N)=O)C1 [Brivaracetam],Affinity for SV2A relative to levetiracetam,15-30 times
